Values quoted from earlier work as cited in US12144787B2, “Method of treating patients with a mutation in cyclin-dependent kinase-like 5 (CDKL5)” (ZOGENIX INTERNATIONAL LIMITED, priority 2019, dated 2024).

Assays:
[1] = system: refractory epilepsy with self-induced seizures; details: children with refractory epilepsy; dose 0.5 to 1 mg/kg/day
[2] = system: pattern sensitivity-induced seizures; details: one child, seizures resistant to anticonvulsive treatment
[3] = system: compulsive respiratory stereotypies; details: open label, 8 children; subset of patients
[4] = system: self-induced photosensitive seizures; details: four cases; patients staring into bright lights or the sun

CCNC(C)Cc1cccc(C(F)(F)F)c1 (racemic) [fenfluramine, (RS)—N-ethyl-1-[3-(trifluoromethyl)phenyl]propan-2-amine]
number of seizures experienced by the patients [1]: reduction in the number of seizures
effect on self-induced seizures [2]: successfully terminated these self-induced seizures
effect on compulsive respiratory stereotypies [3]: some beneficial effects
response of self-induced photosensitive seizures to treatment [4]: responded to treatment
